In US20210386367A1, “DEVICES AND SYSTEMS FOR GASTROINTESTINAL MICROBIOME DETECTION AND MANIPULATION” (Progenity, Inc., priority 2018, published 2021):
In brackets after ≈: the same amount, converted by molar mass. Entries after “also recorded” stand apart in the source; their conditions may differ. Like-named read-outs stand apart in the source and are kept apart here.

Legend:
Assay type in all cases: cell-based
[1] = test system: Streptococcus agalactiae; assay: Broth microdilution MIC, 20 clinical isolates
Description: (§1) Minimal inhibitory concentration (MIC) values were determined by broth microdilution or agar dilution in accordance with guidelines from the Clinical and Laboratory Standards Institute (CLSI; (1) “Methods for Dilution Antimicrobial Susceptibility Tests for Bacteria That Grow Aerobically; Approved Standard; 11th ed.” CLSI standard M07-A11, 2018; (2) “Performance Standards for Antimicrobial Susceptibility Testing; Twenty-Eighth Informational Supplement,” CLSI document M100-S28, 2018; and (3) “Methods for Antimicrobial Susceptibility Testing of Anaerobic Bacteria; Approved Standard—Eighth Edition,” CLSI document M11-A8, 2012).
(§2) Tested aerobically by broth microdilution: • Escherichia coli, n=50 • Klebsiella spp., n=50 • Pseudomonas aeruginosa, n=50 • Streptococcus spp., n=50 • Staphylococcus aureus, n=50 • Enterococcus faecalis, n=50 • Enterobacter aerogenes, n=50 • Proteus mirabilis, n=50
(§3) Broth microdilution testing of aerobic bacteria was conducted in cation-adjusted Mueller Hinton broth (MHBII). For testing streptococci, lysed horse blood (LHB) was added to MHBII broth at a final concentration of 3%. Where LHB was used, it was added after filtering.
(§4) Broth microdilution susceptibility testing in 96-well microplates was conducted in accordance with CLSI methods (1) and (2). Automated liquid handlers were used to conduct serial dilutions and liquid transfers, including the Multidrop 384 (Labsystems, Helsinki, Finland), Biomek 2000, and the Biomek FX (Beckman Coulter, Fullerton, Calif.). All wells in columns 2 through 12 of a standard 96-well microdilution plate (Costar 3795) were filled with 150 μL of the appropriate diluent. Then, 300 μL of the test agents were added to the wells of column 1 of the plates at 100× the highest final concentration to be tested. Serial two-fold dilutions were made across the rows through column 11 using the Biomek 2000. The wells of column 12 contained no drug and served as the growth control wells. This plate served as the “mother plate” from which MIC assay plates or “daughter plates” were made.
(§5) The daughter plates were loaded with 190 μL per well of the appropriate medium using the Multidrop 384. The daughter plates were created using the Biomek FX which transferred 2 μL of drug solution from each well of a mother plate to each corresponding well of the daughter plate in a single step. A standardized inoculum of each test organism was prepared per CLSI methods (1) to equal a 0.5 McFarland standard, followed by a dilution of 1:20 for aerobes and 1:10 for anaerobes. The plates were then inoculated with 10 μL of the diluted inoculum using the Biomek 2000 from low to high drug concentration, resulting in a final concentration of approximately 5×10^5 CFU/mL per well. An un-inoculated plate was incubated in parallel for each medium for the purpose of assessing solubility of the drug in the test media.
(§6) Inoculated plates were stacked 3 or 4 high, covered with a sterile lid on the top plate, placed into boxes with CO2 planchets (streptococci) or plastic bags (all other isolates). Plates were incubated at 35° C. for 16-24 hr in ambient air for aerobes or for 42-48 hr in the anaerobic environment of the Bactron II anaerobe chamber (Sheldon Manufacturing Co.; Cornelius, Oreg.). Following incubation, the microplates were removed from the incubator and viewed from the bottom using a plate viewer. The MIC values were read and recorded as the lowest concentration of drug that inhibited visible growth of the organism as per CLSI methods (1) and (2).

[2] = test system: Streptococcus pyogenes clinical isolates; assay: MIC distribution against clinical isolates; details: 19 S. pyogenes isolates
Text: (§7) As used herein, “minimum inhibitory concentration” or “MIC” refers to the lowest concentration of an antimicrobial agent, for example, an antimicrobial agent as described herein, required to inhibit the growth of an organism. […] “MIC90” represents the MIC value at which ≥90% of the strains within a test population are inhibited; the 90th percentile.
(§8) Many susceptibility testing methods are known in the art and can be used as described herein (see, e.g., Jorgensen and Ferraro (2009) Clinical Infectious Diseases 49:1749-1755; and Maurer et al. (2017) Infectious Disease Reports 9:6839; the entire contents of each of the foregoing are incorporated herein by reference). For example, antimicrobial susceptibility can be determined using conventional culture based methods such as the broth or agar dilution test. In these dilution tests, the bacterial isolate of interest is inoculated onto different media that include serial dilutions of an antimicrobial agent, and incubated under appropriate conditions (e.g., overnight at 37° C.) to allow for growth to occur. Following the incubation period, the media is examined to determine bacterial growth. The lowest concentration of antibiotic that prevents growth represents the minimal inhibitory concentration (MIC). Broth dilution tests can be miniaturized and mechanized allowing for reproducibility and high throughput.

[3] = test system: Viridans group Streptococci clinical isolates; assay: MIC distribution against clinical isolates; details: 15 Viridans group Streptococci isolates
Text: as §7, §8

[4] = test system: Staphylococcus aureus; assay: Broth microdilution MIC, 50 clinical isolates (28 MRSA)
Description: as §1, §2, §3, §4, §5, §6

[5] = test system: Streptococcus pyogenes; assay: Broth microdilution MIC, 19 clinical isolates
Description: as §1, §2, §3, §4, §5, §6

[6] = test system: Streptococcus spp. clinical isolates; assay: MIC distribution against clinical isolates; details: 54 Streptococcus spp. isolates
Text: (n=19 S. pyogenes, n=20 S. agalactiae and n=20 Viridans group Streptococcus) clinical isolates (μg/mL).
as §7, §8

[7] = test system: Streptococcus spp.; assay: Broth microdilution MIC, 54 clinical isolates
Description: as §1, §2, §3, §4, §5, §6

[8] = test system: Enterococcus faecalis; assay: Broth microdilution MIC, 50 clinical isolates
Description: as §1, §2, §3, §4, §5, §6

[9] = 20 Streptococcus agalactiae clinical isolates
[10] = 54 Streptococcus spp. clinical isolates

Compound: C[C@@H](O)[C@H]1C(=O)N2C(C(=O)O)=C(S[C@@H]3CN[C@H](C(=O)N(C)C)C3)[C@H](C)[C@H]12 [meropenem]
- MIC50 [1, 9]: 0.03 µg/mL (≈ 0.0782 µM)
- MIC90 [1, 9]: 0.03 µg/mL (≈ 0.0782 µM)
- MIC range [1, 9]: 0.015 to 0.06 µg/mL
- % S ([1]; 20 Streptococcus agalactiae clinical isolates, MXF by FDA breakpoints): 100%
- MIC50 ([1]; Streptococcus agalactiae, read-out: MIC50): 0.03 µg/mL (≈ 0.0782 µM)
- MIC90 ([1]; Streptococcus agalactiae, read-out: MIC90): 0.03 µg/mL (≈ 0.0782 µM)
- Mode ([1]; modal MIC, 20 Streptococcus agalactiae clinical isolates): 0.03 µg/mL
- Cumulative percentage of isolates inhibited at MIC ([2]; MIC 0.004 μg/mL): 78.9%
- Number of test isolates at MIC ([2]; MIC 0.004 μg/mL): 14
- Cumulative percentage of isolates inhibited at MIC ([2]; MIC 0.008 μg/mL): 94.7%
- Number of test isolates at MIC ([2]; MIC 0.008 μg/mL): 3
- Cumulative percentage of isolates inhibited at MIC ([2]; MIC 0.03 μg/mL): 100.0%
- Number of test isolates at MIC ([2]; MIC 0.03 μg/mL): 1
- Cumulative percentage of isolates inhibited at MIC ([2]; MIC ≤0.002 μg/mL): 5.3%
- Number of test isolates at MIC ([2]; MIC ≤0.002 μg/mL): 1
- Cumulative percentage of isolates inhibited at MIC ([3]; MIC 0.004 μg/mL): 6.7%
- Number of test isolates at MIC ([3]; MIC 0.004 μg/mL): 1
- Cumulative percentage of isolates inhibited at MIC ([3]; MIC 0.008 μg/mL): 26.7%
- Number of test isolates at MIC ([3]; MIC 0.008 μg/mL): 3
- Cumulative percentage of isolates inhibited at MIC ([3]; MIC 0.015 μg/mL): 60.0%
- Number of test isolates at MIC ([3]; MIC 0.015 μg/mL): 5
- Cumulative percentage of isolates inhibited at MIC ([3]; MIC 0.03 μg/mL): 80.0%
- Number of test isolates at MIC ([3]; MIC 0.03 μg/mL): 3
- Cumulative percentage of isolates inhibited at MIC ([3]; MIC 0.5 μg/mL): 100.0%
- Number of test isolates at MIC ([3]; MIC 0.5 μg/mL): 2
- Cumulative percentage of isolates inhibited at MIC ([3]; MIC […]): 86.7%
- Number of test isolates at MIC ([3]; MIC […]): 1
- Mode [4]: 0.12 µg/mL
- MIC50 ([4]; Staphylococcus aureus, read-out: MIC50): 1 µg/mL (≈ 2.61 µM)
- MIC90 ([4]; Staphylococcus aureus, read-out: MIC90): 8 µg/mL (≈ 20.9 µM)
- % S [5]: 100%
- MIC range [5]: ≤0.002-0.03^ μg/mL
- Mode [5]: 0.004 µg/mL
- MIC50 ([5]; Streptococcus pyogenes, read-out: MIC50): 0.004 µg/mL (≈ 0.0104 µM)
- MIC90 ([5]; Streptococcus pyogenes, read-out: MIC90): 0.008 µg/mL (≈ 0.0209 µM)
- Cumulative percentage of isolates inhibited at MIC ([6]; MIC 0.004 μg/mL): 29.6%
- Number of test isolates at MIC ([6]; MIC 0.004 μg/mL): 15
- Cumulative percentage of isolates inhibited at MIC ([6]; MIC 0.008 μg/mL): 40.7%
- Number of test isolates at MIC ([6]; MIC 0.008 μg/mL): 6
- Cumulative percentage of isolates inhibited at MIC ([6]; MIC 0.015 μg/mL): 57.4%
- Number of test isolates at MIC ([6]; MIC 0.015 μg/mL): 9
- Cumulative percentage of isolates inhibited at MIC ([6]; MIC 0.03 μg/mL): 92.6%
- Number of test isolates at MIC ([6]; MIC 0.03 μg/mL): 19
- Cumulative percentage of isolates inhibited at MIC ([6]; MIC 0.06 μg/mL): 94.4%
- Number of test isolates at MIC ([6]; MIC 0.06 μg/mL): 1
- Cumulative percentage of isolates inhibited at MIC ([6]; MIC 0.5 μg/mL): 100.0%
- Number of test isolates at MIC ([6]; MIC 0.5 μg/mL): 2
- Cumulative percentage of isolates inhibited at MIC ([6]; MIC […]): 96.3%
- Number of test isolates at MIC ([6]; MIC […]): 1
- Cumulative percentage of isolates inhibited at MIC ([6]; MIC ≤0.002 μg/mL): 1.9%
- Number of test isolates at MIC ([6]; MIC ≤0.002 μg/mL): 1
- isolates susceptible [7]: All
- relative activity among drugs tested [7]: most active drug evaluated; also recorded: most active agent
- MIC50 [7, 10]: 0.015 µg/mL (≈ 0.0391 µM)
- MIC90 [7, 10]: 0.03 µg/mL (≈ 0.0782 µM)
- MIC range [7, 10]: ≤0.002 to 0.5 µg/mL
- % S ([7]; 54 Streptococcus spp. clinical isolates, MXF by FDA breakpoints): 100%
- MIC50 ([7]; Streptococcus, read-out: MIC50): 0.015 µg/mL (≈ 0.0391 µM)
- MIC90 ([7]; Streptococcus, read-out: MIC90): 0.03 µg/mL (≈ 0.0782 µM)
- Mode ([7]; modal MIC, 54 Streptococcus spp. clinical isolates): 0.03 µg/mL
- Mode [8]: 4 µg/mL
- MIC50 ([8]; Enterococcus faecalis, read-out: MIC50): 4 µg/mL (≈ 10.4 µM)
- MIC90 ([8]; Enterococcus faecalis, read-out: MIC90): 8 µg/mL (≈ 20.9 µM)
